“Also recorded” adds a separate entry of the source.
How the values were obtained:
AChE from electric eel = molecular target: T1, AChE from electric eel (Electrophorus electricus, UniProt O42275); assay: biochemical; settings: means of two experiments, read-out: Inhibition of AChE (IC50)
T1 construct: commercially available enzyme AChE 500 U (extracted from electrophorus electricus); purchased type VI-S; host or cells: extracted from electric eel
Description: The analytical grade reagents were purchased from Sigma-Aldrich (St. Louis, MO, USA) and Acros (Thermo Fisher Scientific, Geel, Belgium) and were used without any further purification. The organic solvents were dried and distilled according to standard methods described in literature. […] The Proton and Carbon-13 NMR were recorded either on Bruker AVANCE III-300 (300 MHz and 75.5 MHz) or Bruker AVANCE III-400 (400 MHz and 100.5 MHz) NMR spectrometers (Billerica, MA, USA) at 25 °C using peaks of solvents as internal standard. The chemical shift values of protons or carbons were measured on a δ scale and the coupling constant values (J) were determined in Hertz. In the NMR representation, abbreviations are mentioned as: singlet represented by s, doublet represented by d, triplet represented by t, multiplet represented by m, double doublet represented by dd, and broad singlet represented by brs. The Leica Galen III hot stage apparatus (Leica Microsystems, Wetzlar, Germany) was used for measuring the melting points of compounds. […] The AChE inhibitory activity was measured in a 1 cm path length quartz cell through a Perkin Elmer Lambda 35 spectrophotometer equipped with a temperature programmer PTP1+1 Peltier System (T = 25.0 ± 0.1 °C) (Waltham, MA, USA). Electrospray ionization-mass (ESI-MS) measurements were carried out on a LCQ Fleet mass spectrometer (Thermo Scientific, S. Jose, CA, USA) operated in the ESI positive and negative ion modes.
Modified Ellman’s method was used as described previously for the determination of AChE activity. The AChE stock solution was prepared by dissolving commercially available enzyme AChE 500 U (extracted from electrophorus electricus) in 10 mL of TRIS buffer (50 mM, pH 8). HEPES buffer was used for the dilution of the enzyme to give the final AChE concentration. The assay solution consisted of 374 μL of 4-(2-hydroxyethyl)-1-piperazineethanesulfonic acid (Hepes) buffer (50 mM, pH 8.0), 476 μL of 3 mM bis(3-carboxy-4-nitrophenyl)disulfide (DTNB), 25 μL of AChE (type VI-S, from electric eel) stock solution, a variable volume (10–50 μL) of the compound’s stock solution (1 mg/mL of MeOH), and the necessary amount of methanol to attain the same volume of sample mixture (0.925 mL) in a 1 mL cuvette. Samples were left to react for 15 min and then the reaction was monitored at wavelength of 405 nm for 5 min, after adding 75 μL of 16 mM acetylthiocholine iodide (AChI) solution. Assays were run with a blank containing all the components except AChE, which was replaced by HEPES buffer. The velocities of the reaction were calculated as well as the enzyme activity. A control reaction was carried out using the sample solvent (methanol) in the absence of any tested compound, and it was considered as 100% activity. […] The inhibition curves were obtained by plotting the percentage of enzymatic inhibition versus inhibitor concentration and a calibration curve was obtained from which the linear regression parameters were calculated.

SH-SY5Y cells = assay: Neuroprotection against Aβ1–42 induced toxicity, MTT reduction; format: cell-based, human; settings: Aβ1-42 1 μM, 24 h after 1 h pre-treatment, compounds: 16 2.5 µM, 17 0.5 µM, 14 and 15 0.2 µM, 19 and 18 1 µM
Description: The neuroprotective effect of TAC-PhBTA conjugates was evaluated using SH-SY5Y cells treated with Aβ1–42 peptides or ascorbate/iron. For each compound, a dose-response curve was performed to select a non-toxic concentration in order to analyze its neuroprotective effect (Figure 3).
SH-SY5Y human neuroblastoma cell line (ATCC-CRL-2266) grown in Dulbecco’s modified Eagle’s medium (DMEM) obtained from Gibco-Invitrogen (Life Technologies Ltd., Liverpool, UK) with 10% heat inactivated fetal calf serum, containing 50 U/mL penicillin, and 50 μg/mL streptomycin, under a humidified atmosphere of 95% air-5% CO2 at 37 °C. Cells were plated at 0.12 × 10^6 cells/mL for cell viability assay. The tested compounds (16, 17, 14, 15, 19 and 18) were dissolved in DMSO at a concentration of 25 mM and aliquots were stored at −20 °C. We performed a dose-response screening (from 0.2 μM to 5 μM) in order to choose the highest non-toxic concentration. As a result we selected a 2.5 μM final concentration for compound 16; 0.5 μM final concentration for compound 17; 0.2 μM final concentration for compounds 14 and 15; and a 1 μM final concentration for compounds 19 and 18. […] The compounds were added to the cell media 1 h before the incubation with Aβ1–42 or ferrous sulfate/L-ascorbic acid. Aβ1–42 or ferrous sulfate/L-ascorbic acid where incubated alone or with the compound for an additional 24 h. Aβ1–42 was prepared as 276.9 μM stock in sterile water and added to the medium at 1 μM final concentration. Ferrous sulfate was freshly prepared as 0.36 M stock in water and added to the medium at 500 μM final concentration. L-Ascorbic Acid was freshly prepared as 80 mM stock in water and added to the medium at 5 mM final concentration. […]
Cell viability was determined by a MTT (3-(4,5-dimethylthiazol-2-yl)-2,5-diphenyltetrazolium bromide) reduction test. […] The absorbance was measured at 570 nm. Cell reduction ability was expressed as a percentage of untreated control cells.
All data were expressed as mean ± S.E.M. of at least three independent experiments performed in duplicates. […]

T1 sequence (O42275 24-633): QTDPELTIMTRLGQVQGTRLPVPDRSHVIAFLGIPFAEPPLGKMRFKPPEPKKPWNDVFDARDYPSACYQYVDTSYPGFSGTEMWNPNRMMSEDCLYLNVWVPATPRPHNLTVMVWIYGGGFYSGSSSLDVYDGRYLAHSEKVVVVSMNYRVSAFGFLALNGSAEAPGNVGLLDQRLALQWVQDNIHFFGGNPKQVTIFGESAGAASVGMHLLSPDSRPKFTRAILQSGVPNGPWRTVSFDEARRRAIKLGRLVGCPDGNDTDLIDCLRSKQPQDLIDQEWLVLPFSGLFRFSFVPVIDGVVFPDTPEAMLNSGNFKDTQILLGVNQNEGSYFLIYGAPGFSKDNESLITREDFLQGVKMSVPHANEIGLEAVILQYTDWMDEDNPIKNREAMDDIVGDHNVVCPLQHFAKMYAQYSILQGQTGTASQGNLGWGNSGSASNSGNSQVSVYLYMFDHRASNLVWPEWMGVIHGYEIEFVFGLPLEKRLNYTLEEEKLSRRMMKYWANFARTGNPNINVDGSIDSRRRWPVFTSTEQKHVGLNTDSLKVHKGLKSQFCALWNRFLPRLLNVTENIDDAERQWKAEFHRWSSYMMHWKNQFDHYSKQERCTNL

COc1cc(-c2nc3ccccc3s2)ccc1OCC(=O)NCC(O)CNc1c2c(nc3cc(Cl)ccc13)CCCC2 (stereo not drawn) [compound 19, 2-(4-(Benzo[d]thiazol-2-yl)-2-methoxyphenoxy)-N-(3-((6-chloro-1,2,3,4-tetrahydroacridin-9-yl)amino)-2-hydroxypropyl)acetamide]
IC50 (AChE from electric eel): 140 nM
Prevention of Aβ-induced cell toxicity (cell viability, MTT) (SH-SY5Y cells): capacity to prevent Aβ-induced toxicity; also recorded: prevented Aβ-induced cell toxicity

COc1cc(-c2nc3ccccc3s2)ccc1OCC(=O)NCCNc1c2c(nc3cc(Cl)ccc13)CCCC2 [compound 15, 2-(4-(Benzo[d]thiazol-2-yl)-2-methoxyphenoxy)-N-(2-((6-chloro-1,2,3,4 tetrahydroacridin-9-yl)amino)ethyl)acetamide]
IC50 (AChE from electric eel): 60 nM
Prevention of Aβ-induced cell toxicity (cell viability, MTT) (SH-SY5Y cells): capacity to prevent Aβ-induced toxicity; also recorded: prevented Aβ-induced cell toxicity

COc1cc(-c2nc3ccccc3s2)ccc1OCC(=O)NCCCNc1c2c(nc3ccccc13)CCCC2 [compound 16, 2-(4-(Benzo[d]thiazol-2-yl)-2-methoxyphenoxy)-N-(3-((1,2,3,4-tetrahydroacridin-9-yl)amino)propyl)acetamide]
IC50 (AChE from electric eel): 150 nM
Prevention of Aβ-induced cell toxicity (cell viability, MTT) (SH-SY5Y cells): capacity to prevent Aβ-induced toxicity; also recorded: prevented Aβ-induced cell toxicity
